Data from patent US20100316529A1, “Anti-Microbial Systems and Methods” (priority 2001, published 2010).
“And” between values parts separate entries of the source, which are not always exact repeats. Equal values may be shown once.

How the values were obtained:
Format in all cases: cell-based
E. coli = assay: EDTA salt dilution test, MIC/MBC; conditions: three entries, Exhibit A1
Experimental: (§1) Protocol one: Broth dilutions:
(§2) Inoculate a 25 ml nutrient broth (Oxoid No2) in a sterile universal container with one of the following organisms; Pseudomonas aeruginosa, Proteus Mirabilis, E. coli, Klebsiella pneumoniae, Staph aureus, Coagulase negative staphylococci, Enterococcus faecalis or MRSA.
(§3) Incubate the broth at 37° C. overnight.
(§4) To make these concentrations put the EDTA needed for 10 mLs in only 9 mLs of broth in sterile universal containers, as this will be diluted further when the organisms are added.
(§5) Dilute the overnight broth cultures to 10^7 organisms/mL using more sterile nutrient broth.
(§6) Add 1 mL of this diluent to each of the EDTA series broths. This gives a final concentration of 10^6 organism/mL in the EDTA broths.
(§7) Incubate for 18 hours at 37° C.
(§8) Next day visually read the MIC's by observing the turbidity of the broths.
(§9) Plate out 1 uL of each dilution onto fresh blood agar plate and spread using a sterile plastic spreader.
(§10) Incubate overnight at 37° C.
(§11) Next day read the MBC's by performing colony counts.

Ent. faecalis = assay: EDTA salt dilution test, MIC/MBC
Experimental: as §1, §2, §3, §4, §5, §6, §7, §8, §9, §10, §11

Kleb. pnemoniae = assay: EDTA salt dilution test, MIC/MBC; conditions: two entries, Exhibit A1
Experimental: as §1, §2, §3, §4, §5, §6, §7, §8, §9, §10, §11

MRSA = assay: EDTA salt dilution test, MIC/MBC; conditions: five entries, Exhibit A2
Experimental: as §1, §2, §3, §4, §5, §6, §7, §8, §9, §10, §11

Proteus mirabilis = assay: EDTA salt dilution test, MIC/MBC; conditions: two entries
Experimental: as §1, §2, §3, §4, §5, §6, §7, §8, §9, §10, §11

Pseudomonas aeruginosa = assay: EDTA salt dilution test, MIC/MBC; conditions: two entries
Experimental: as §1, §2, §3, §4, §5, §6, §7, §8, §9, §10, §11

Pseudomonas sp. = assay: EDTA salt dilution test, MIC/MBC
Experimental: as §1, §2, §3, §4, §5, §6, §7, §8, §9, §10, §11

S. aureus = assay: EDTA salt dilution test, MIC/MBC; conditions: five entries, Exhibit A2
Experimental: as §1, §2, §3, §4, §5, §6, §7, §8, §9, §10, §11

S. capitis = assay: EDTA salt dilution test, MIC/MBC; conditions: two entries
Experimental: as §1, §2, §3, §4, §5, §6, §7, §8, §9, §10, §11

S. epidermidis = assay: EDTA salt dilution test, MIC/MBC; conditions: two entries
Experimental: as §1, §2, §3, §4, §5, §6, §7, §8, §9, §10, §11

S. lentus = assay: EDTA salt dilution test, MIC/MBC
Experimental: as §1, §2, §3, §4, §5, §6, §7, §8, §9, §10, §11

S. simulans = assay: EDTA salt dilution test, MIC/MBC
Experimental: as §1, §2, §3, §4, §5, §6, §7, §8, §9, §10, §11

S. xylosus = assay: EDTA salt dilution test, MIC/MBC
Experimental: as §1, §2, §3, §4, §5, §6, §7, §8, §9, §10, §11

VRE = assay: EDTA salt dilution test, MIC/MBC; conditions: two entries
Experimental: as §1, §2, §3, §4, §5, §6, §7, §8, §9, §10, §11

Ent. faeculm = assay: EDTA salt dilution test, MIC/MBC
Kleb. oxytoca = assay: EDTA salt dilution test, MIC/MBC
Kleb. ornitholytica = assay: EDTA salt dilution test, MIC/MBC
Ent. cloacae = assay: EDTA salt dilution test, MIC/MBC; conditions: three entries, Exhibit A1
Steno. maltophilia = assay: EDTA salt dilution test, MIC/MBC
Cornyeform amycolatum = assay: EDTA salt dilution test, MIC/MBC
Coryneform strait/amy = assay: EDTA salt dilution test, MIC/MBC
Acinetobacter baumanii = assay: EDTA salt dilution test, MIC/MBC; conditions: two entries, Exhibit A2
Proteus vulgaris = assay: EDTA salt dilution test, MIC/MBC
C. lucitaniae = assay: EDTA agar dilution method, yeasts, MIC/MBC; conditions: Exhibit C
Source text: (§12) Protocol 3: Agar dilutions.
Do this until all the media is used up.

C. albicans = assay: EDTA agar dilution method, yeasts, MIC/MBC; conditions: three entries, Exhibit C
Experimental: (§13) The bactericidal effects were measured as the Minimum Bactericidal Concentration (MBC), while the inhibitory effects were measured as the Minimum Inhibitory Concentration (MIC). In each case, the concentration was measured as milligrams of the disinfectant salt per milliliter of water (mg/ml).
as §12
(§14) Prepare nutrient agar plates with increasing concentrations of EDTA, 0, 0.5, 1, 1.5, 2, 4, 6, 8, 10, 15, 20, 25, 30 mg/mL, using the following method. • Pour 300 mL distilled water into a sterile glass bottle. • Add the appropriate amount of EDTA. This is the concentration desired ×300, in grams. • Once the EDTA has fully dissolved, add 8.4 g of Nutrient agar powder (Oxoid). Mix thoroughly. • Do this for each concentration of EDTA required. […] Do this until all the media is used up. Label the plates with the concentration of EDTA they contain. • These plates can then be stored, until they are needed, in a 4° C. fridge. • Use an automatic plate inoculator to inoculate each plate with 21 organisms.

C. glabrata = assay: EDTA agar dilution method, yeasts, MIC/MBC; conditions: two entries, Exhibit C
Experimental: as §13, §12, §14

C. guilliermondii = assay: EDTA agar dilution method, yeasts, MIC/MBC; conditions: Exhibit C
Experimental: as §13, §12, §14

C. parapsilosis = assay: EDTA agar dilution method, yeasts, MIC/MBC; conditions: Exhibit C
Experimental: as §13, §12, §14

C. tropicalis = assay: EDTA agar dilution method, yeasts, MIC/MBC; conditions: Exhibit C
Experimental: as §13, §12, §14

variety of microbes = assay: Efficacy of disinfectant salts of EDTA against a number of microbes; conditions: general statement
Experimental: The Applicant has tested the efficacy of a number of disinfectant salts of EDTA against a number of microbes.
as §1, §2, §3
Next day make up a series of nutrient broths containing a dilution of the appropriate EDTA as in the following list; 0 mg/mL, 0.25 mg/mL, 0.5 mg/mL, 1.0 mg/mL, 1.5 mg/mL, 2.0 mg/mL, 4.0 mg/mL, 6.0 mg/mL, 8.0 mg/mL, 10 mg/mL, 15 mg/mL, 20 mg/mL, 25 mg/mL, 30 mg/ml, 40 mg/mL, 50 mg/mL, 60 mg/mL, 70 mg/mL, 80 mg/mL, 90 mg/mL, 100 mg/mL.
as §4, §5, §6, §7
Next day visually read the MIC's by observing the turbidity of the broths. […]
as §11

For `N.N.O=C(O)CN(CCN(CC(=O)O)CC(=O)O)CC(=O)O` [Diammonium EDTA], the “MBC, minimum concentration required to kill an entire population” value (“MBC, minimum concentration required” for short) (E. coli) was over 10000 µg/mL, the “MBC, minimum concentration required” value (Ent. faecalis; Exhibit A1) was 15000 µg/mL and the “MIC, minimum concentration required to inhibit growth” value (“MIC … to inhibit growth” below) (Ent. faecalis; Exhibit A2) was 1000 µg/mL. The “MBC, minimum concentration required” value (Kleb. pnemoniae) was over 10000 µg/mL, the “MIC … to inhibit growth” value (MRSA) was 1000 µg/mL and the “MBC, minimum concentration required” value (Proteus mirabilis; Exhibit A1) was over 10000 µg/mL. For the same compound, the “MIC … to inhibit growth” value (Proteus mirabilis; Exhibit A2) was under 500 µg/mL, the “MBC, minimum concentration required” value (Pseudomonas aeruginosa; Exhibit A1) was over 10000 µg/mL and the “MIC … to inhibit growth” value (Pseudomonas aeruginosa; Exhibit A2) was 1000 µg/mL. The “MBC, minimum concentration required” value (Pseudomonas sp.; Exhibit A1) was over 10000 µg/mL, the “MIC … to inhibit growth” value (Pseudomonas sp.; Exhibit A2) was under 500 µg/mL and the “MIC … to inhibit growth” value (S. aureus) was 1000 µg/mL. The “MBC, minimum concentration required” value (S. capitis; Exhibit A1) was 10000 µg/mL and 8000 µg/mL, the “MIC … to inhibit growth” value (S. capitis; Exhibit A2) was under 500 µg/mL and the “MBC, minimum concentration required” value (S. epidermidis; Exhibit A1) was 4000 µg/mL and 8000 µg/mL. For the same compound, the “MIC … to inhibit growth” value (S. epidermidis; Exhibit A2) was under 500 µg/mL, the “MBC, minimum concentration required” value (S. lentus; Exhibit A1) was 10000 µg/mL and the “MIC … to inhibit growth” value (S. lentus; Exhibit A2) was under 500 µg/mL. For the same compound, the “MBC, minimum concentration required” value (S. simulans; Exhibit A1) was 10000 µg/mL, the “MIC … to inhibit growth” value (S. simulans; Exhibit A2) was under 500 µg/mL and the “MBC, minimum concentration required” value (S. xylosus; Exhibit A1) was 4000 µg/mL. The “MIC … to inhibit growth” value (S. xylosus; Exhibit A2) was under 500 µg/mL, the “MBC, minimum concentration required” value (VRE; Exhibit A1) was 15000 µg/mL and >15000 µg/mL and the “MIC … to inhibit growth” value (VRE; Exhibit A2) was <500 µg/mL and 1000 µg/mL. For the same compound, the “MIC … to inhibit growth” value (Ent. faeculm; Ent. faecuim, Exhibit A2) was under 500 µg/mL, the “MBC, minimum concentration required” value (Ent. faeculm; Ent. faeculm, Exhibit A1) was 15000 µg/mL and the “MBC, minimum concentration required” value (Kleb. oxytoca; Exhibit A1) was over 10000 µg/mL. The “MIC … to inhibit growth” value (Kleb. oxytoca; Exhibit A2) was 1000 µg/mL, the “MBC, minimum concentration required” value (Kleb. ornitholytica; Exhibit A1) was over 10000 µg/mL and the “MIC … to inhibit growth” value (Kleb. ornitholytica; Exhibit A2) was 1000 µg/mL. The “MBC, minimum concentration required” value (Ent. cloacae) was over 10000 µg/mL, the “MBC, minimum concentration required” value (Steno. maltophilia; Exhibit A1) was over 10000 µg/mL and the “MIC … to inhibit growth” value (Steno. maltophilia; Exhibit A2) was 1000 µg/mL. For the same compound, the “MBC, minimum concentration required” value (Cornyeform amycolatum; Exhibit A1) was 1000 µg/mL, the “MIC … to inhibit growth” value (Cornyeform amycolatum; Exhibit A2) was under 500 µg/mL and the “MBC, minimum concentration required” value (Coryneform strait/amy; Exhibit A1) was 1000 µg/mL. For the same compound, the “MIC … to inhibit growth” value (Coryneform strait/amy; Exhibit A2) was under 500 µg/mL, the “MIC … to inhibit growth” value (Acinetobacter baumanii) was under 500 µg/mL and the “MBC, minimum concentration required” value (Proteus vulgaris; Exhibit A1) was over 10000 µg/mL. For the same compound, the “MIC … to inhibit growth” value (Proteus vulgaris; Exhibit A2) was under 500 µg/mL, the “MIC's, Minimum Inhibitory Concentration” value (C. lucitaniae) was 500 µg/mL and the “MIC's, Minimum Inhibitory Concentration” value (C. albicans) was 500 µg/mL. The “MIC's, Minimum Inhibitory Concentration” value (C. glabrata) was 500 µg/mL, the “MIC's, Minimum Inhibitory Concentration” value (C. guilliermondii) was 500 µg/mL and the “MIC's, Minimum Inhibitory Concentration” value (C. parapsilosis) was 500 µg/mL. For the same compound, the “MIC's, Minimum Inhibitory Concentration” value (C. tropicalis) was 1000 µg/mL and the “anti-microbial (antifungal and antibacterial) properties compared with the disodium salt” value (variety of microbes) was “superior to disodium EDTA”.
